Data published in ChEMBL document CHEMBL5257106, “Design, synthesis, and biological evaluation of novel HDAC inhibitors with a 3-(benzazol-2-yl)quinoxaline framework” (Bioorg Med Chem Lett, 2023).
Active and inactive are the calls of the source. The rule behind the calls is not given here.

What was measured:
Histone deacetylase 11 = target: T1, Histone deacetylase 11 (Homo sapiens, UniProt Q96DB2); assay: Inhibition of HDAC11 (unknown origin)
T1 sequence (Q96DB2 whole entry): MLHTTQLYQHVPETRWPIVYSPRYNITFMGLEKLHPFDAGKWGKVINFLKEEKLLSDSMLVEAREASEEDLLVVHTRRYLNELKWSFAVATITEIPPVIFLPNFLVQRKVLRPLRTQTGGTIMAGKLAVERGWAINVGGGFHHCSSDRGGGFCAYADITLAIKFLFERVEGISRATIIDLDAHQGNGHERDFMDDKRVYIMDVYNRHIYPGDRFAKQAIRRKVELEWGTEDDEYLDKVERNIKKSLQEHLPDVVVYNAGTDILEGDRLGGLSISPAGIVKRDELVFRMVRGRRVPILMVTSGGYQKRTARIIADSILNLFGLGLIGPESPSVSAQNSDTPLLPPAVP

HCT-116 [1] = assay: Induction of cell cycle arrest in human HCT-116 assessed as increase in G2/M phase cells at 1 uM incubated for 48 hrs by flow cytometric analysis (reference value: 23.70%); type: functional
HCT-116 [2] = assay: Induction of apoptosis in human HCT-116 cells assessed as necrotic cells at 1 uM incubated for 24 hrs by Annexin V-FITC/PI staining based flow cytometry analysis (reference value: 0.00%); type: functional
HCT-116 [3] = assay: Induction of apoptosis in human HCT-116 cells assessed as early apoptotic cells at 0.5 uM incubated for 24 hrs by Annexin V-FITC/PI staining based flow cytometry analysis (reference value: 6.50%); type: functional
HCT-116 [4] = assay: Induction of apoptosis in human HCT-116 cells assessed as necrotic cells at 0.5 uM incubated for 24 hrs by Annexin V-FITC/PI staining based flow cytometry analysis (reference value: 0.00%); type: functional
Histone deacetylase 4 = Histone deacetylase 4 (Homo sapiens, UniProt P56524); assay: Inhibition of HDAC4 (unknown origin)
K562 [5] = assay: Potency index, ratio of SAHA IC50 to test compound IC50 for antiproliferative activity against human K562 cells assessed as inhibition of cell growth by MTT assay; type: functional
[6] = target: Histone deacetylase (Homo sapiens) (UniProt Q13547+O15379+Q9UBN7+Q92769+Q9UQL6+Q8WUI4+Q9BY41+Q96DB2+P56524+Q9UKV0+Q969S8); assay: Inhibition of HDAC in human HCT-116 cells assessed as increase in alpha tubulin acetylation incubated for 24 hrs by Western blot analysis; type: cell-based; settings: dose 0.5-1 µM
[7] = target: T2, DNA topoisomerase 1 (Homo sapiens) (UniProt P11387); assay: Inhibition of topoisomerase 1 in human HCT-116 cells assessed as suppression of Topo 1 protein expression incubated for 24 hrs by Western blot analysis; type: cell-based; settings: dose 0.5-1 µM
T2 sequence (whole entry): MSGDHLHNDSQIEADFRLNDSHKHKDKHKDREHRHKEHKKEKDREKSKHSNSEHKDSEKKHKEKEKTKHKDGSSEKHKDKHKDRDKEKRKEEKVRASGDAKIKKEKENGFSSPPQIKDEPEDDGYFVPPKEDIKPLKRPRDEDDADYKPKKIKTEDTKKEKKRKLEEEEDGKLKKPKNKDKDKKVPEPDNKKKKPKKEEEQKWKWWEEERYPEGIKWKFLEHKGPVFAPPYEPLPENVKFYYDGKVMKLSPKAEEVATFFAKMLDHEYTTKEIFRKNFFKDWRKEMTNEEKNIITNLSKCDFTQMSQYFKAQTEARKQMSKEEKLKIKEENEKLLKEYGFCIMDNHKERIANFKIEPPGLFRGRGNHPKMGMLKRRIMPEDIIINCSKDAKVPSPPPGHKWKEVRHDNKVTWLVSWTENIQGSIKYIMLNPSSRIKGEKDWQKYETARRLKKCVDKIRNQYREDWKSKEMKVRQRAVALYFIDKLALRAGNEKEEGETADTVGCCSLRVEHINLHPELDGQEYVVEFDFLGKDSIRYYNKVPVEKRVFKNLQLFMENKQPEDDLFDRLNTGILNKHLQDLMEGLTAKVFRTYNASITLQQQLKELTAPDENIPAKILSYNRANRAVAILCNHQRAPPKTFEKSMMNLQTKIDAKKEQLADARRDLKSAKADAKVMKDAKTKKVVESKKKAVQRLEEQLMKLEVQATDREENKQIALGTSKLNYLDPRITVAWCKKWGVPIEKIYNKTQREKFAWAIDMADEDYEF

HCT-116 [8] = assay: Antiproliferative activity against human HCT-116 cells assessed as inhibition of cell growth by MTT assay; type: functional, cell-based
HCT-116 [9] = assay: Induction of apoptosis in human HCT-116 cells assessed as early apoptotic cells at 1 uM incubated for 24 hrs by Annexin V-FITC/PI staining based flow cytometry analysis (reference value: 6.50%); type: functional
PANC-1 = assay: Antiproliferative activity against human PANC-1 cells assessed as inhibition of cell growth by MTT assay; type: functional, cell-based
[10] = Cytotoxicity against HUVEC cells assessed as inhibition of cell growth by MTT assay; settings: human
HL-60 = assay: Antiproliferative activity against human HL-60 cells assessed as inhibition of cell growth by MTT assay; type: functional, cell-based
HCT-116 [11] = assay: Induction of apoptosis in human HCT-116 cells assessed as total apoptotic cells at 1 uM incubated for 24 hrs by Annexin V-FITC/PI staining based flow cytometry analysis (reference value: 6.823%); type: functional
HCT-116 [12] = assay: Induction of apoptosis in human HCT-116 cells assessed as viable cells at 1 uM incubated for 24 hrs by Annexin V-FITC/PI staining based flow cytometry analysis (reference value: 93.2%); type: functional; settings: Homo sapiens, HCT-116, read-out: Activity
K562 [13] = assay: Antiproliferative activity against human K562 cells assessed as inhibition of cell growth by MTT assay; type: functional, cell-based
HCT-116 [14] = assay: Inhibition of cell migration in human HCT-116 cells measured upto 12 hrs by wound healing assay; type: functional, cell-based; settings: dose 0.5-1 µM
HCT-116 [15] = assay: Induction of apoptosis in human HCT-116 cells assessed as viable cells at 0.5 uM incubated for 24 hrs by Annexin V-FITC/PI staining based flow cytometry analysis (reference value: 93.2%); type: functional; settings: read-out: Activity
HCT-116 [16] = assay: Induction of apoptosis in human HCT-116 cells assessed as total apoptotic cells at 0.5 uM incubated for 24 hrs by Annexin V-FITC/PI staining based flow cytometry analysis (reference value: 6.823%); type: functional
[17] = target: T2, DNA topoisomerase 1 (Homo sapiens); assay: Inhibition of topoisomerase 1 (unknown origin) assessed as effect on DNA by gel electrophoresis
[18] = target: T2, DNA topoisomerase 1 (Homo sapiens); assay: Inhibition of topoisomerase 1 (unknown origin) mediated DNA relaxation assessed as delay in pBR322 DNA migration by gel electrophoresis assay
Histone deacetylase 1 = Histone deacetylase 1 (Homo sapiens, UniProt Q13547); assay: Inhibition of HDAC1 (unknown origin)
HCT-116 [19] = assay: Induction of apoptosis in human HCT-116 cells assessed as activation of caspase pathway incubated for 24 hrs by Western blot analysis; type: functional, cell-based; settings: dose 0.5-1 µM
RS4-11 = assay: Antiproliferative activity against human RS4-11 cells assessed as inhibition of cell growth by MTT assay; type: functional, cell-based
HCT-116 [20] = assay: Induction of apoptosis in human HCT-116 cells assessed as late apoptotic cells at 1 uM incubated for 24 hrs by Annexin V-FITC/PI staining based flow cytometry analysis (reference value: 0.323%); type: functional

Histone deacetylase 4, sequence (P56524 whole entry): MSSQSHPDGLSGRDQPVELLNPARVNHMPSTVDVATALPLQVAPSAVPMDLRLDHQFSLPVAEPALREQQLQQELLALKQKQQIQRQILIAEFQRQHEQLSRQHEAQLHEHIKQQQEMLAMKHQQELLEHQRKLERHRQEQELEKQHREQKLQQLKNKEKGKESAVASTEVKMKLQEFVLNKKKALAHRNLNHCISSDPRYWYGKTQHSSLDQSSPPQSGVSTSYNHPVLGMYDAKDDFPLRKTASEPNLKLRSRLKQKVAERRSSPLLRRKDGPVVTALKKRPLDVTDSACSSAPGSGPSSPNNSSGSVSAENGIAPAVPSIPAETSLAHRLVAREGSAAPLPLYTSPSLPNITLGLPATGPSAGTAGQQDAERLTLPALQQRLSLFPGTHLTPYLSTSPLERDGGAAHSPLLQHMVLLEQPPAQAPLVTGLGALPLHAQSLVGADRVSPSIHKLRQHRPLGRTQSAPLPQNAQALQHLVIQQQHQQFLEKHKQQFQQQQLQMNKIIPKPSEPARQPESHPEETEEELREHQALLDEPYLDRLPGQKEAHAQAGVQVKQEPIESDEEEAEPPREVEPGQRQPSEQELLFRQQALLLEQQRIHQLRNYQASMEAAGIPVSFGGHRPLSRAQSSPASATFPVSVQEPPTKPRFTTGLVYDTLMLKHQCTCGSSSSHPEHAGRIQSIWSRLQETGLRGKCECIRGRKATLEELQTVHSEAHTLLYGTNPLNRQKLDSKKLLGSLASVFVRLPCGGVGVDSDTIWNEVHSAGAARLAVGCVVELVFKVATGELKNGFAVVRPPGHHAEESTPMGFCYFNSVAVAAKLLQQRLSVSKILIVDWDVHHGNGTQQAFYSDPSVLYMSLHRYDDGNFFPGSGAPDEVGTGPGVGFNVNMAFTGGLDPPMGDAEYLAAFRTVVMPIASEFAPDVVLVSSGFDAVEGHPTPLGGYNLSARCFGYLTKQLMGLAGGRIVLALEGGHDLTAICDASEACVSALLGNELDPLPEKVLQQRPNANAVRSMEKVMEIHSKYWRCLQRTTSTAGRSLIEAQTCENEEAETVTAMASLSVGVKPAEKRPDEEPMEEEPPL
Histone deacetylase 1, sequence (Q13547 whole entry): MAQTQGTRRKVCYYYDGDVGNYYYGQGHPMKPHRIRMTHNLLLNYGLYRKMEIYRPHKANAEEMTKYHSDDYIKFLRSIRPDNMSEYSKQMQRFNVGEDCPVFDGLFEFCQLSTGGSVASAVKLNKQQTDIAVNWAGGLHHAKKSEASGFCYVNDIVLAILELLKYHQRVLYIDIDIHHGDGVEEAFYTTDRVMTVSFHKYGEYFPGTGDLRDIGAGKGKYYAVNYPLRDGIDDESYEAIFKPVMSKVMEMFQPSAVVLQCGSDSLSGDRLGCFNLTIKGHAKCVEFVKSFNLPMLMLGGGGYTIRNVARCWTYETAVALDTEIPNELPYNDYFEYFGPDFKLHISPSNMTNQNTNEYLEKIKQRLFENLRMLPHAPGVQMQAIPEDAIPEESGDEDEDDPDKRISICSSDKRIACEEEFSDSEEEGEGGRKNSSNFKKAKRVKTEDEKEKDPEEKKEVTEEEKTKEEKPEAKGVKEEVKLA

**Q.** Which IC50 (Histone deacetylase 11) does the source give for O=C(CCCCCCNc1nc2ccccc2nc1-c1nc2ccccc2o1)NO here?
**A.** 110 nM

**Q.** What about the Activity (HCT-116 [1]) of the same molecule?
**A.** 39.64%

**Q.** And the Activity (HCT-116 [2])?
**A.** 0.103%

**Q.** What about the Activity (HCT-116 [3]) of the same molecule?
**A.** 28.1%

**Q.** What about the Activity (HCT-116 [4]) of the same molecule?
**A.** 0.241%

**Q.** What about the IC50 (Histone deacetylase 4) of the same molecule?
**A.** 15.5 nM

**Q.** And the “Ratio IC50” value (K562 [5])?
**A.** 2

**Q.** And the inhibition [6]?
**A.** Dose-Dependent Effect

**Q.** What about the inhibition [7] of the same molecule?
**A.** Dose-Dependent Effect

**Q.** And the IC50 (HCT-116 [8])?
**A.** 910 nM

**Q.** What about the Activity (HCT-116 [9]) of the same molecule?
**A.** 34.5%

**Q.** What about the IC50 (PANC-1) of the same molecule?
**A.** 1030 nM

**Q.** What about the IC50 [10] of the same molecule?
**A.** 19100 nM

**Q.** And the IC50 (HL-60)?
**A.** 890 nM

**Q.** And the Activity (HCT-116 [11])?
**A.** 51.8%

**Q.** What about the viability at 1 µM (HCT-116 [12]) of the same molecule?
**A.** 48.1%

**Q.** What about the IC50 (K562 [13]) of the same molecule?
**A.** 890 nM

**Q.** And the inhibition (HCT-116 [14])?
**A.** Dose-Dependent Effect

**Q.** What about the viability at 0.5 µM (HCT-116 [15]) of the same molecule?
**A.** 64.5%

**Q.** And the Activity (HCT-116 [16])?
**A.** 35.31%

**Q.** And the inhibition [17]?
**A.** inactive

**Q.** What about the inhibition [18] of the same molecule?
**A.** Active

**Q.** What about the IC50 (Histone deacetylase 1) of the same molecule?
**A.** 11 nM

**Q.** And the Activity (HCT-116 [19])?
**A.** Dose-Dependent Effect

**Q.** What about the IC50 (RS4-11) of the same molecule?
**A.** 890 nM

**Q.** What about the Activity (HCT-116 [20]) of the same molecule?
**A.** 17.3%
